For assay [1], the system named is tight junction-related factors in large intestinal tissues. In words: Gene expression of tight junction-related factors in large intestinal tissues of DSS-induced enteritis model mouse (real-time PCR). Type of assay: in vivo, BALB/c mice. Conditions: oral 100 nmol/day, FIG. 10. On the procedure: (§1) BALB/c mice (♀, 6-week-old) were purchased from Charles River Japan (Kanagawa, Japan), and all experiment plans were carried out in accordance with Hiroshima University, Animal Experiment Rule (No. C10-17). Acute colitis was induced by allowing free intake of 3.5% (w/v) DSS (molecular weight 36000-50000; MP Biomedicals, Aurora, Ohio, USA) for 5 days. To evaluate the effect of HYA and HYB on large intestine, 100 μL of a suspension of HYA or HYB (each 100 nmol) was orally administered to the mice. This administration was performed every day for total 10 days, for 5 days before DSS administration and 5 days after the start of the administration. The symptoms of colitis were evaluated every day based on a decrease in body weight, condition of feces and bleeding from the anus. After administration of DSS for 5 days, the mouse was sacrificed, and the length of the large intestine was measured. Thereafter, RNA was extracted from the large intestine tissue by using RNeasy Mini Kit (Qiagen, Maryland, Md., USA). Paraffin section (7 μm) of the large intestine tissue was produced, stained with hematoxylin-eosin, and histochemically evaluated. The extracted RNA was reverse-transcribed using a high-capacity cDNA reverse transcription kit (Life Technologies) to give cDNA, and real-time PCR analysis was performed using a KAPA SYBR FAST ABI PRISM qPCR kit (Kapa Biosystems). As the primer, oligoDNA pairs of nucleotide sequences were used: SEQ ID NOs: 5 and 6 for Claudin-1, SEQ ID NOs: 13 and 14 for Claudin-3, SEQ ID NOs: 15 and 16 for Claudin-4, SEQ ID NOs: 7 and 8 for ZO-1, SEQ ID NOs: 17 and 18 for ZO-2, SEQ ID NOs: 9 and 10 for Occludin, and SEQ ID NOs: 11 and 12 for MLCK.
(In qPCR the cycle at which signal appears reflects the starting amount.)

Assay [2] has as its system IL-8 production in Caco-2 cells. In words: IL-8 production in Caco-2 monolayer cells stimulated with IFN-γ and TNF-α (ELISA). Type of assay: cell-based, human. To be noted: 50 μM, IFN-γ and TNF-α stimulation, outer side culture medium 6 hr after TNF-α addition, FIG. 3A. On the procedure:
(§2) Caco-2 cells were placed in a 75 cm^2 tissue culture flask, and cultured up to about 80% confluence at 37° C. The cells were inoculated in a 12-well transwell (Transwell (registered trade mark)) cell culture chamber (permeable membrane; diameter 12 mm, pore size 0.4 μm) at a cell concentration of 2×10^5 cells/cm^2, and cultured at 37° C. for 14 days under 5% CO2 atmosphere to give Caco-2 monolayer cells. Furthermore, to verify whether or not tight junction is sufficiently formed, Caco-2 monolayer cells having transepithelial electrical resistance (TER) of about 900-1,000 Ωcm^2 or more were used for the assay. […]
(§3) To the inner side culture medium of each well of the Caco-2 monolayer cells prepared by the aforementioned method was added a solution of HYA, HYB, KetoA, KetoB or KetoC (each 50 μM concentration, 500 μL), and the mixture was cultured for 24 hr. […] TNF-α was added to 50 ng/mL, the mixture was further cultured for 6 hr, and the below-mentioned intestinal tract barrier protection effect was evaluated. […]
(§4) The intestinal tract barrier protection effect by test fatty acid solution was compared using transepithelial electrical resistance (TER) value (Ω·cm^2) and IL-8 production (pg/mL) as indices. With a resistance value measurement system (Millicell-ERS, Millipore) using an Ag/AgCl electrode, each TER value at 0, 1, 2, 3, 4, 5 and 6 hr after addition of TNF-α was measured. […]
(In general: ELISA stands for enzyme-linked immunosorbent assay.)

The test system of assay [3] is tight junction-related factors (MLCK, occludin) in Caco-2 monolayer cells. Briefly: Gene expression of tight junction-related factors in Caco-2 monolayer cells (real-time PCR). Conditions: IFN-γ and TNF-α, 6 hr, FIG. 4. Type of assay: cell-based, human. On the procedure: (§5) To the inner side culture medium of each well of the Caco-2 monolayer cells prepared by the aforementioned method was added a solution of HYA, HYB, KetoA, KetoB or KetoC (each 50 μM concentration, 500 μL), and the mixture was cultured for 24 hr. Then, IFN-γ was added to the outer side culture medium to the final concentration of 50 ng/mL and, after culture for 24 hr, the outer side medium was once removed. TNF-α was added to 50 ng/mL, the mixture was further cultured for 6 hr, and the below-mentioned intestinal tract barrier protection effect was evaluated. Also, a well free of test fatty acid and added with IFN-γ and TNF-α, and a well free of test fatty acid solution, IFN-γ and TNF-α (hereinafter to be also referred to as control) were prepared.
(§6) In the same manner as in the aforementioned Example, HYA was added and, 6 hr later, the Caco-2 monolayer cells were washed 3 times with PBS, and RNA was extracted with TRIzol (registered trade mark) (manufactured by Life Technologies) from the cells. RNA was reverse-transcribed using a high-capacity cDNA reverse transcription kit (Life Technologies) to give cDNA, and real-time PCR analysis was performed using KAPA SYBR FAST ABI PRISM qPCR kit (Kapa Biosystems). […]

For assay [4], the system named is IL-8 mRNA in Caco-2 cells. Briefly: IL-8 mRNA expression in Caco-2 monolayer cells (real-time PCR). The format is cell-based, human. To be noted: IFN-γ and TNF-α, FIG. 3B. On the procedure: as §5, §6
A further assay relates to Caco-2 monolayer cells. In words: Intestinal tract barrier protection: transepithelial electrical resistance (TER) of Caco-2 monolayer cells stimulated with IFN-γ and TNF-α. To be noted: 50 μM test fatty acid 24 hr, then IFN-γ 50 ng/mL 24 hr, TNF-α 50 ng/mL, 0-6 hr; FIG. 2. Type of assay: cell-based, human. On the procedure: as §2, §3, §4
For assay [5], the system named is DSS-induced enteritis model mouse. In words: Dextran sodium sulfate (DSS)-induced enteritis model mouse: body weight, feces, large intestine length, histology. The format is in vivo, BALB/c mice. Conditions: 100 nmol orally every day for 10 days, 3.5% DSS for 5 days. On the procedure: as §1

Results on 2 compounds are retold here after patent publication US9539229B2, “Intestinal tract-protecting agent containing hydroxylated fatty acid” (KYOTO UNIVERSITY, priority 2013, dated 2017).

The structures appear in SMILES notation.

With `CCCCC/C=C\CC(O)CCCCCCCCC(=O)O` (stereo not drawn) [HYA, 10-hydroxy-cis-12-octadecenoic acid], in assay [1] (compared to the DSS mouse), the “mRNA expression of MLCK in large intestine tissue” value is “significant recovery of the mRNA expression of occludin and MLCK”; the “mRNA expression of occludin in large intestine tissue” value was “significant recovery of the mRNA expression of occludin and MLCK”. For the same compound, the IL-8 production entry in assay [2] is “suppression of IL-8 production was observed”. Besides, in assay [3], the “mRNA expression of MLCK” value was “suppression of an increase in the mRNA expression of MLCK”; the “mRNA expression of occludin” value is “suppression of an increase in the mRNA expression of MLCK and a decrease in the mRNA expression of occludin”. Also, the “mRNA expression of IL-8” value in assay [4] is recorded as “suppressed such increase in the expression”. In addition, the “TER relative value (Relative TER)” value in the assay with Caco-2 monolayer cells was “showed suppression of a decrease in the TER relative value”. In addition, the weight loss entry in assay [5] (FIG. 5, 6) is reported as “effective for the suppression of weight loss”. Also, the stool score result in assay [5] (FIG. 7) is “recovery of stool score”. Besides, the “length of large intestine” value in assay [5] (FIG. 8) is reported as “protection of large intestine”. Moreover, in assay [5] (FIG. 9), the “histochemical evaluation of the large intestine section (H&E staining)” value was “showed recovery of tissue damage”.
Take `CCCCCCCCC(O)CCCCCCCCC(=O)O` (centres unmarked) [HYB, 10-hydroxyoctadecanoic acid]: the “mRNA expression of all TJ-associated factors (claudin-1, -3, -4, occludin, MLCK, ZO-1, ZO-2) in large intestine tissue” value in assay [1] (DSS mouse) is recorded as “did not show recovery from abnormal expression of all TJ-associated factors”. Further, in assay [2], the IL-8 production result was “suppression of IL-8 production was observed”. Also, the “mRNA expression of IL-8” value in assay [4] is recorded as “suppressed such increase in the expression”.
